Laboratory results taken from US6358947B1 (American Home Products Corporation, priority 1999, dated 2002).
Where two headings read alike, the source gives them in different places.

Legend:
Type in all cases: cell-based
human PR = target: T1, human PR (Homo sapiens, UniProt P06401); experiment: Cotransfection assay, PR agonist, CV-1 cells; conditions: for PR Agonist CV-1 Cells Efficacy: percent maximal response relative to reference agonist
T1 sequence (P06401 1-933): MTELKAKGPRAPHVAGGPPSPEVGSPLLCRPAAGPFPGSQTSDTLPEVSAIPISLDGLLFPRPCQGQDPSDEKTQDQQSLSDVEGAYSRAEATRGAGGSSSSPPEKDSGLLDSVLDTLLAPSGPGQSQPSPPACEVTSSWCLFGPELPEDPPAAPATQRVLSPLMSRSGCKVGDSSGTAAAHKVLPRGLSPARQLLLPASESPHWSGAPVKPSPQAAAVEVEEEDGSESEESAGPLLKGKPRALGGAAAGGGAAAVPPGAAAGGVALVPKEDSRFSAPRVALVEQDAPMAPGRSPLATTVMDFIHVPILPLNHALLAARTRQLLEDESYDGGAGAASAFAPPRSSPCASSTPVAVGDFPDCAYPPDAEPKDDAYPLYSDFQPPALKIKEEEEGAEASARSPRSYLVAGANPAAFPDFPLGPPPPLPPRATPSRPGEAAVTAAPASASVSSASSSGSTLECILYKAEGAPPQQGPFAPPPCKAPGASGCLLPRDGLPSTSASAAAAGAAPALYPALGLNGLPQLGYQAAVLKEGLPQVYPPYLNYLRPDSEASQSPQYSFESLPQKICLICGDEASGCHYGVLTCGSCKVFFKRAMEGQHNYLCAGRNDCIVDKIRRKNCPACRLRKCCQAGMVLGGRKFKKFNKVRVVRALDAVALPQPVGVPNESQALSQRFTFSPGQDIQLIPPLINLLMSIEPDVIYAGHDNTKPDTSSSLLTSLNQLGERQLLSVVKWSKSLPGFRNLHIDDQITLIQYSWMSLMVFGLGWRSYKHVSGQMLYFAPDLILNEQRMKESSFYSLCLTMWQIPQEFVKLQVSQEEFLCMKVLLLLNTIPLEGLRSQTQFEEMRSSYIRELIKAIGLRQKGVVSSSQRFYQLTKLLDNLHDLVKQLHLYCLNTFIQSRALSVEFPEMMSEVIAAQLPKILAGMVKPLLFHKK
From the text: (§1) The cotransfection assay provides a method for identifying functional agonists and partial agonists that mimic, or antagonists that inhibit, the effect of native hormones, and for quantifying their activity for responsive intracellular receptor (IR) proteins. In this regard, the cotransfection assay mimics an in vivo system in the laboratory. Importantly, activity in the cotransfection assay correlates very well with known in vivo activity, such that the cotransfection assay functions as a qualitative and quantitative predictor of a tested compound's in vivo pharmacology.
(§2) In the cotransfection assay, a cloned cDNA for an IR (e.g., human PR, AR or GR) under the control of a constitutive promoter (e.g., the SV 40 promoter) is introduced by transfection (a procedure to induce cells to take up foreign genes) into a background cell substantially devoid of endogenous IRs. This introduced gene directs the recipient cells to make the IR protein of interest. A second gene is also introduced (cotransfected) into the same cells in conjunction with the IR gene. This second gene, comprising the cDNA for a reporter protein, such as firefly luciferase (LUC), is controlled by an appropriate hormone responsive promoter containing a hormone response element (HRE). This reporter plasmid functions as a reporter for the transcription-modulating activity of the target IR. Thus, the reporter acts as a surrogate for the products (mRNA, then protein) normally expressed by a gene under control of the target receptor and its native hormone.
(§3) The cotransfection assay can detect small molecule agonists or antagonists of target IRs. Exposing the transfected cells to an agonist ligand compound increases reporter activity in the transfected cells. This activity can be conveniently measured, e.g., by increasing luciferase production, which reflects compound-dependent, IR-mediated increases in reporter transcription. […] Increasing concentrations of a suspected antagonist will decrease the reporter signal (e.g., luciferase production). The cotransfection assay is therefore useful to detect both agonists and antagonists of specific IRs. Furthermore, it determines not only whether a compound interacts with a particular IR, but whether this interaction mimics (agonizes) or blocks (antagonizes) the effects of the native regulatory molecules on target gene expression, as well as the specificity and strength of this interaction.

hAR [1] = target: T2, hAR (Homo sapiens, UniProt P10275); experiment: Cotransfection assay, AR agonist; conditions: read-out: AR Potency Agon
T2 sequence (P10275 1-920): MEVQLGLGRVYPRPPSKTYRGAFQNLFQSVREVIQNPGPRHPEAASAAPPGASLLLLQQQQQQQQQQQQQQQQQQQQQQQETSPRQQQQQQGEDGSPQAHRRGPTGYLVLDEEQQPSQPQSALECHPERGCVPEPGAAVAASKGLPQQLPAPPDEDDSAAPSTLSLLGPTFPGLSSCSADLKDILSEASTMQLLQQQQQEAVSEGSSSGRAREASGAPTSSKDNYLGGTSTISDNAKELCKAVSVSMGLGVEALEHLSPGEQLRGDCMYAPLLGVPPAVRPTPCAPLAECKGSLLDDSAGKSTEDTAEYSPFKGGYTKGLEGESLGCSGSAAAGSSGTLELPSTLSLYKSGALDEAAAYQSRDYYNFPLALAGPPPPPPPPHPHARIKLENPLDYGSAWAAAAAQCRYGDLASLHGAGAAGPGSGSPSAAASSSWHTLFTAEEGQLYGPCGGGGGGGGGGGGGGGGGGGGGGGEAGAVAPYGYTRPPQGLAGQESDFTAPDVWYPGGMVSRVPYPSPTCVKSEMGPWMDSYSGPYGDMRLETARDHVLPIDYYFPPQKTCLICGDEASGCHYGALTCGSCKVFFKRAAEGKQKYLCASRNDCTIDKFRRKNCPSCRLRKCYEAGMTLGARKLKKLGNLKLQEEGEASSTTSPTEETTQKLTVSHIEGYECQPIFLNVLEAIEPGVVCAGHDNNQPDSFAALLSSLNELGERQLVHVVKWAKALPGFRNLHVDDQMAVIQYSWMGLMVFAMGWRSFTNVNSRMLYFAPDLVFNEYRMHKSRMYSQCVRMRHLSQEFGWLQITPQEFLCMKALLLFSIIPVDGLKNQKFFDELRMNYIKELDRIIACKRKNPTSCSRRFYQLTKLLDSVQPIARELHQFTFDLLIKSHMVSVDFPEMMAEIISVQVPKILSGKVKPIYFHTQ
From the text: as §1, §2, §3

hAR [2] = target: T2, hAR; experiment: Cotransfection assay, AR antagonist; conditions: read-out: AR Potency Antag
From the text: as §1, §2, §3

hER = target: T3, hER (Homo sapiens, UniProt P03372); experiment: Cotransfection assay, ER agonist; conditions: read-out: ER Potency Agon
T3 sequence (P03372 1-595): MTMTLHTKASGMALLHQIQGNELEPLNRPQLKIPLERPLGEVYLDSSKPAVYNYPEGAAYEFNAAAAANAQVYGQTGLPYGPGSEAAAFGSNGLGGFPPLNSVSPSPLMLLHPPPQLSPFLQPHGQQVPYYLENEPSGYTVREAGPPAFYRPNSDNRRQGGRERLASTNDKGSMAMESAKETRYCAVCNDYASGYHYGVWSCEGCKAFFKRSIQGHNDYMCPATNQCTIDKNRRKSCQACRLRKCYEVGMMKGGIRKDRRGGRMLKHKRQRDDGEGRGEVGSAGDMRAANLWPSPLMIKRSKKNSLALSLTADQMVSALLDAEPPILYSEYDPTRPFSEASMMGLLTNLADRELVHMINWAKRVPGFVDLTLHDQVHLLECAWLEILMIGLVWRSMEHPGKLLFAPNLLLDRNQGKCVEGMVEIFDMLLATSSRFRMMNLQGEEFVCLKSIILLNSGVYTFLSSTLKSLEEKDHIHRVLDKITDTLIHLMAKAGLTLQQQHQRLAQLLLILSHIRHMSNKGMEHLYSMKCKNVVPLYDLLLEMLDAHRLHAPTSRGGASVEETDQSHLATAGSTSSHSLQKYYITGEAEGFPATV
From the text: as §1, §2, §3

[3] = CV-1 cells, Table 1, read-out: PR Agonist CV-1 Cells Potency

Row | SMILES | EC50 (human PR; [3]) [nM] | PR Agonist CV-1 Cells Efficacy (human PR; CV-1 cells) | EC50 (human PR; Table 2, read-out: PR Potency Agon) [nM] | EC50 (hAR [1]) [nM] | IC50 (hAR [2]) [nM] | EC50 (hER) [nM]
1 | CC1(C)OC(=O)Nc2ccc3c(c21)COc1c(F)cc(C=O)cc1-3 [Compound 24, 7-fluoro-9-formyl-4,4-dimethyl-5H-chromeno[3,4-f]-1,3-benzo[d]oxazin-2-one] | > 10000 | na (na = not active (i.e. efficacy of <20 and potency of >10,000)) | > 10000 | > 10000 | 130 | > 10000
2 | CC1(C)OC(=O)Nc2ccc3c(c21)COc1c(F)cccc1-3 [Compound 14, 7-Fluoro-4,4-dimethyl-5H-chromeno[3,4-f]-1,3-benzo[d]oxazin-2-one] | 2500 | 30% |  | > 10000 | 200 | > 10000
3 | CC1(C)OC(=O)Nc2ccc3c(c21)COc1c(F)cc(Br)cc1-3 [Compound 20, 9-Bromo-7-fluoro-4,4-dimethyl-5H-chromeno[3,4-f]-1,3-benzo[d]oxazin-2-one] | 500 | 30% |  | > 10000 | 1000 | > 10000
4 | CC1(C)OC(=O)Nc2ccc3c(c21)COc1c(F)cc(C#N)cc1-3 [Compound 26, 9-cyano-7-fluoro-4,4-dimethyl-5H-chromeno[3,4-f]-1,3-benzo[d]oxazin-2-one] | 1000 | 60% |  | > 10000 | 300 | > 10000
5 | CC1(C)OC(=O)Nc2ccc3c(c21)COc1c(F)cc(C=NO)cc1-3 [Compound 25, 7-fluoro-9-hydroxyiminomethyl-4,4-dimethyl-5H-chromeno[3,4-f]-1,3-benzo[d]oxazin-2-one] | 623 | 46% |  | > 10000 | 100 | > 10000
